Measured values reported in ChEMBL document CHEMBL1201862, “PubChem BioAssay data set” (2004).
The source made the active and inactive calls.

Tests used:
HEK293 [1] = assay: inhibition of NOD1-driven NF-kB reporter – cell-based, luminescence, uHTS, primary screen (AID 1578); format: functional; conditions: Homo sapiens
HEK293 [2] = assay: cells; format: functional, cell-based; conditions: Homo sapiens
HEK293 [3] = assay: cells; format: functional, cell-based; conditions: Homo sapiens; remark: listed apart in the source
[4] = molecular target: Nucleotide-binding oligomerization domain-containing protein 2 (Homo sapiens, UniProt Q9HC29); assay: inhibition of NOD2-driven NF-kB reporter – cell-based, luminescence, uHTS, HEK293 (AID 1566); format: functional
HEK293 [5] = assay: NOD2 signaling inhibitors in MDP-stimulated cells, cell-based, uHTS, luminescence (AID 2001); format: functional; conditions: Homo sapiens
HEK293 [6] = assay: cells; format: functional, cell-based; conditions: Homo sapiens; remark: listed apart in the source
[7] = molecular target: Voltage-dependent T-type calcium channel subunit alpha-1H (Homo sapiens, UniProt O95180); format: functional;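 also: channel activity triggered by adding a high calcium stimulation buffer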
Leucine aminopeptidase = molecular target: T1, Leucine aminopeptidase (Plasmodium falciparum 3D7, UniProt Q8IL11); assay: P. falciparum M17LAP inhibitors, primary screen, biochemical, fluorogenic H-Leu-NHMec substrate, 1536-well (AID 1619); format: functional
T1 sequence (Q8IL11 whole entry): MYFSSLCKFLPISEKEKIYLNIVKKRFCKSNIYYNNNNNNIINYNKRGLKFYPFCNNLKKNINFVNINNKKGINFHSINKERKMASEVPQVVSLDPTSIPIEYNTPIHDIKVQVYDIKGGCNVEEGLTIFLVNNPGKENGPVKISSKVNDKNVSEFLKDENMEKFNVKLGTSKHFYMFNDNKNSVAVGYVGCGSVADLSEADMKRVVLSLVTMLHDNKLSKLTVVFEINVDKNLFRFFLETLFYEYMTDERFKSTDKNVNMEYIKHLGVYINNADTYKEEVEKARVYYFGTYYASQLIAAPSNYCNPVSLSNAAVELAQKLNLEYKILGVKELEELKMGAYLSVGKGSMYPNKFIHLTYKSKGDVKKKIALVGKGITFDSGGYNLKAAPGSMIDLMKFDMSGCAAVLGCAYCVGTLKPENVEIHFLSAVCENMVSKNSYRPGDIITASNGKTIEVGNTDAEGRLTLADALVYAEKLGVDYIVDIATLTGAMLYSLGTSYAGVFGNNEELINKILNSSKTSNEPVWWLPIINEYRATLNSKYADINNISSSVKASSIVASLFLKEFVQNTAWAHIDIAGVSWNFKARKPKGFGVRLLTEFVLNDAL

[8] = Luminescence Cell-Based Dose Confirmation HTS to Identify Activators of 5'UTR Stem-Loop Driven Alpha-Synuclein mRNA Translation in H4 Neuroglioblastoma Cells. [Related pubchem assays: 1829 (Project Summary), 1814 (Primary HTS)]; format: functional
[9] = Luminescence Cell-Based Dose Response HTS to Identify Activators of Luciferase Translation or Activity in H4 […] Cells. [Related pubchem assays: 1829 (Project Summary), 1814 (Primary HTS)]; format: functional
H4 = assay: Luminescence Cell-Based Dose Response HTS to Identify Activators of 5'UTR Stem-Loop Driven Prion Protein mRNA Translation in H4 Neuroglioblastoma Cells. [Related pubchem assays: 1829 (Project Summary), 1814 (Primary HTS)]; format: functional; conditions: Homo sapiens
[10] = THP-1 cell cytotoxicity, dose response, cytotoxicity control for non-replicating M. tuberculosis project (AID 489025); format: functional
[11] = HepG2 cell cytotoxicity, dose response, cytotoxicity control for non-replicating M. tuberculosis project (AID 489018); format: functional; conditions: Mycobacterium tuberculosis
[12] = Vero E6 cell cytotoxicity, dose response, cytotoxicity control for non-replicating M. tuberculosis project, secondary assay (AID 492998); format: functional, VeroE6; conditions: Vero C1008
cells = format: functional
[13] = molecular target: T2, DNA repair and recombination protein RAD54-like (Homo sapiens, UniProt Q92698); assay: RAD54 Holliday junction migration blockers – biochemical, fluorescence, cherry-picked samples, dose series, confirmation (AID 651657); format: functional
T2 sequence (Q92698 whole entry): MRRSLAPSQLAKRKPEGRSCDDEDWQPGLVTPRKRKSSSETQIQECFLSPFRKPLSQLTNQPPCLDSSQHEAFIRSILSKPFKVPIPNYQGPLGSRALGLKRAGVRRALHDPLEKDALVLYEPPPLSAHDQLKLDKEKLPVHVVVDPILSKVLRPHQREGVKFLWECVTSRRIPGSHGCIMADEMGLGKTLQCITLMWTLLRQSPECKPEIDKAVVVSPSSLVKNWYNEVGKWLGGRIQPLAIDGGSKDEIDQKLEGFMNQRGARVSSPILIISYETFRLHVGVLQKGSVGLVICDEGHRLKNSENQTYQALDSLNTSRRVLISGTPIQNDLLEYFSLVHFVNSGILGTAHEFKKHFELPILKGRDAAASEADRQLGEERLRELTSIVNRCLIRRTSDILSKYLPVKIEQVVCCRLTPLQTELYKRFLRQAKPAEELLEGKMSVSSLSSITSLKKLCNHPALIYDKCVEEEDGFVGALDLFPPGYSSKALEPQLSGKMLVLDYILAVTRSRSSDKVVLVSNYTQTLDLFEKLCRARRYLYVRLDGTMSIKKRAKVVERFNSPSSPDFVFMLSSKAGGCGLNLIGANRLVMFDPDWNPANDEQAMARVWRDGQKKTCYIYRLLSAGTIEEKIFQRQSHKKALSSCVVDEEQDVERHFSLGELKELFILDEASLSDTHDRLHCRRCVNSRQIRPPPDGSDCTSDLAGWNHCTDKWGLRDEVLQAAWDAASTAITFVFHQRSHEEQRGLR

[14] = molecular target: T3, RNA-binding protein pos-1 (Caenorhabditis elegans, UniProt G5EF15); assay: disruptors of C. elegans POS-1 RNA interaction – biochemical, fluorescence polarization, dose response (AID 1964);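 also: purified POS-1 fused to maltose binding protein made in E. coli; potency of compounds blocking POS-1 binding to fluorescent RNA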
T3 sequence (G5EF15 whole entry): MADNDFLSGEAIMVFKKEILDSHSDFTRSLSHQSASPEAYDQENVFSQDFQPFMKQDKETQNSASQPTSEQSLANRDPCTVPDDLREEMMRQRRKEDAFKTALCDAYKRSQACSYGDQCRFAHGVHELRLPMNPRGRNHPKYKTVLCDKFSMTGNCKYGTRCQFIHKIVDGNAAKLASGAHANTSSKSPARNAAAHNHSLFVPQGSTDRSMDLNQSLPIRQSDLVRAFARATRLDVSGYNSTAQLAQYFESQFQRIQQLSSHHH

[15] = molecular target: T4, Zinc finger protein mex-5 (Caenorhabditis elegans, UniProt Q9XUB2); assay: potency of MEX-5 RNA-binding blockers – biochemical, C. elegans, fluorescence polarization, dose response (AID 1960)
T4 sequence (Q9XUB2 whole entry): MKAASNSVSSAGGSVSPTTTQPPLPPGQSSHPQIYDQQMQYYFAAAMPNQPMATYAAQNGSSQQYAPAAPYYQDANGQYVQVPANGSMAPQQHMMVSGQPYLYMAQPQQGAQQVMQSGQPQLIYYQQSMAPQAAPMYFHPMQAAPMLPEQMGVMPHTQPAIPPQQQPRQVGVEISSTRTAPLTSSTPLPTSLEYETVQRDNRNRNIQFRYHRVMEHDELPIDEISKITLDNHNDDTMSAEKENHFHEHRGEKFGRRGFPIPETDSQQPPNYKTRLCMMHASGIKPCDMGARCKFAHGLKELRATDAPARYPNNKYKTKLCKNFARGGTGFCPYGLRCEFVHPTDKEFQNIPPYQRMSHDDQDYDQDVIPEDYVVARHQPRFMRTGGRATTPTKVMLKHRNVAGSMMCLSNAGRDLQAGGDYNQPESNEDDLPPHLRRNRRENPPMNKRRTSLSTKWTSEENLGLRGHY

[16] = HEK-293T cell viability reduction – luminescence, B-cell screen hits, cytotoxicity control for BCR NF-kB inhibitor project, dose response (AID 489021); format: functional, cell-based;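 also: HEK-293T cells carrying an NF-kB luciferase reporter; cells exposed to compound for about 14 hours before viability readout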
[17] = reduction of Shn3 3'UTR-driven luciferase in osteoblasts – cell-based, Clone20 osteoblasts, firefly luciferase, cherry-picked, dose response (AID 624132); format: functional;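 also: firefly luciferase luminescence from reporter carrying the Shn3 3'UTR in osteoblasts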
[18] = loss of viability in HepG2 cells – cell-based, CellTiter-Glo, cherry-picked, cytotoxicity control for Shn3 inhibitor project, dose response (AID 624134); format: functional
[19] = non-specific 3'UTR reporter inhibition in Clone20-Shn3RL – cell-based, Renilla luciferase, cherry-picked, counter-screen for Shn3 inhibitor project, dose response (AID 624133); format: functional
[20] = blockers of HIV-1 envelope-mediated cell-cell fusion – cherry-pick, dose response (AID 652057); format: functional, cell-based
[21] = blockers of HIV-1 ZM109 envelope-driven cell-cell fusion – HeLa effector, CEM target cells, luciferase, cherry-pick, dose response (AID 652058); format: functional, cell-based;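 also: luciferase signal from HIV-1 Env mediated cell-cell fusion of effector and target cells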
[22] = HIV-1 AD8 envelope cell-cell fusion blockers – cherry-pick, dose response (AID 652062); format: functional, cell-based;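 also: luciferase signal from cell-cell fusion driven by HIV-1 clade B AD8 Env; potency is for inhibitors of fusion seen as a drop in luminescence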
[23] = molecular target: Heat shock protein HSP 90-alpha (Homo sapiens, UniProt P07900); format: functional, organism-based

Sequence of Voltage-dependent T-type calcium channel subunit alpha-1H (O95180 whole entry): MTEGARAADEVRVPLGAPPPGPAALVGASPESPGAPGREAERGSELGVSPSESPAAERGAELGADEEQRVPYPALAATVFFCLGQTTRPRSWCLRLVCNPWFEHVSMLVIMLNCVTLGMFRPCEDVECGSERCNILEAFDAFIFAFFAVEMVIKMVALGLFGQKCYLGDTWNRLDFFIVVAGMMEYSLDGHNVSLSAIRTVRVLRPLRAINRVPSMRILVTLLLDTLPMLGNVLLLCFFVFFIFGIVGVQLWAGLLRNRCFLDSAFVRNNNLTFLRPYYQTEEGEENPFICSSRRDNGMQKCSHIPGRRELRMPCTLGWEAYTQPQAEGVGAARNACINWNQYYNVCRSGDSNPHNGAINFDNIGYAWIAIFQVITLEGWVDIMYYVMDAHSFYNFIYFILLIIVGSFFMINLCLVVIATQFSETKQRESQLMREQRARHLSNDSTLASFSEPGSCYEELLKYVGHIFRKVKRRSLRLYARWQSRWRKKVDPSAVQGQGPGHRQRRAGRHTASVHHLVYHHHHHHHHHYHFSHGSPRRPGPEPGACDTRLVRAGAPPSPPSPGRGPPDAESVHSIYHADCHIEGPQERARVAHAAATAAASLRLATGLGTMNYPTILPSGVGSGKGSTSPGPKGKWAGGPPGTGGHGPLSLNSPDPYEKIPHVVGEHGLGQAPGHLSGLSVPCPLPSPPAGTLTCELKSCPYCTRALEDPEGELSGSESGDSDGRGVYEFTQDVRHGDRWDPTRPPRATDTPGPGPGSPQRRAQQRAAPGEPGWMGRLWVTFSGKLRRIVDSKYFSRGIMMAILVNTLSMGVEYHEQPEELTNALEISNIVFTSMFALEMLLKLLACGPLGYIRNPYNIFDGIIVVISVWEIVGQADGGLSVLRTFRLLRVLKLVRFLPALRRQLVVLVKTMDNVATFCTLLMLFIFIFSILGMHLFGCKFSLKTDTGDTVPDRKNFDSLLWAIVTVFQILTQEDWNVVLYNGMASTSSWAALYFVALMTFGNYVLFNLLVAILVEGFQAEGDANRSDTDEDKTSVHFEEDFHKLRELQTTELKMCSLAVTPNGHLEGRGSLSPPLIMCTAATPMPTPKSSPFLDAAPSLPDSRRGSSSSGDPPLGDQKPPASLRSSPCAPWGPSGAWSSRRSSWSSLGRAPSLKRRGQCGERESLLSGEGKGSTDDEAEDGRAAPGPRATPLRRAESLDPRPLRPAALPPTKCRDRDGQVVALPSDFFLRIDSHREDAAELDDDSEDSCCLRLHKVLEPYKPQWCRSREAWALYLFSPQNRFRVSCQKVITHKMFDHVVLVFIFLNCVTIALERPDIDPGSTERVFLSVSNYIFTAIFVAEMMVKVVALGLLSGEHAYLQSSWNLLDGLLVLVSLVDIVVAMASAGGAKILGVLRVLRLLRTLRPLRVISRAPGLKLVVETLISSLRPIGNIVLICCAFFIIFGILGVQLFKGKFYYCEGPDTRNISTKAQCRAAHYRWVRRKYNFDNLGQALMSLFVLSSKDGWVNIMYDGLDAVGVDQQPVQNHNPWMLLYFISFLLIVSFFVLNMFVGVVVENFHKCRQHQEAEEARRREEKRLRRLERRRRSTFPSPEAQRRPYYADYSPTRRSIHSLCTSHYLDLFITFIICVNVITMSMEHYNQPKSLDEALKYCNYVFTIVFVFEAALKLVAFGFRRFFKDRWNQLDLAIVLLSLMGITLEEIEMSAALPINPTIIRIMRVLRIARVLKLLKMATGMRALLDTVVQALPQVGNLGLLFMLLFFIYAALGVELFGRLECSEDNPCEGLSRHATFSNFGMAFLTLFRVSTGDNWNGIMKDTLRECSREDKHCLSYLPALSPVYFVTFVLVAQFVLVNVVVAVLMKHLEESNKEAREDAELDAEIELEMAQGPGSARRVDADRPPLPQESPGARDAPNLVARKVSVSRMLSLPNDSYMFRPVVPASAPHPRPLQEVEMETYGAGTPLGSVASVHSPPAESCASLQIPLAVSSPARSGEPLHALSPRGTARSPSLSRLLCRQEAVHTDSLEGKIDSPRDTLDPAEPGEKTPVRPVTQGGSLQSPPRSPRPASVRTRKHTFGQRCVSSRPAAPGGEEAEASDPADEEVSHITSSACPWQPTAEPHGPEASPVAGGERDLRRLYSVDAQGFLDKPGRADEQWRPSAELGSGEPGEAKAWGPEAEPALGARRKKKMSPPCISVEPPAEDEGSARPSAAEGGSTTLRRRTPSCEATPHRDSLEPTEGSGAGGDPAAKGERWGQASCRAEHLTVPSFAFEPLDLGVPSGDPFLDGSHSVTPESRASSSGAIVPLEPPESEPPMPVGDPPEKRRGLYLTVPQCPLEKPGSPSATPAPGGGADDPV
Sequence of Nucleotide-binding oligomerization domain-containing protein 2 (Q9HC29 whole entry, the tested form may be a part): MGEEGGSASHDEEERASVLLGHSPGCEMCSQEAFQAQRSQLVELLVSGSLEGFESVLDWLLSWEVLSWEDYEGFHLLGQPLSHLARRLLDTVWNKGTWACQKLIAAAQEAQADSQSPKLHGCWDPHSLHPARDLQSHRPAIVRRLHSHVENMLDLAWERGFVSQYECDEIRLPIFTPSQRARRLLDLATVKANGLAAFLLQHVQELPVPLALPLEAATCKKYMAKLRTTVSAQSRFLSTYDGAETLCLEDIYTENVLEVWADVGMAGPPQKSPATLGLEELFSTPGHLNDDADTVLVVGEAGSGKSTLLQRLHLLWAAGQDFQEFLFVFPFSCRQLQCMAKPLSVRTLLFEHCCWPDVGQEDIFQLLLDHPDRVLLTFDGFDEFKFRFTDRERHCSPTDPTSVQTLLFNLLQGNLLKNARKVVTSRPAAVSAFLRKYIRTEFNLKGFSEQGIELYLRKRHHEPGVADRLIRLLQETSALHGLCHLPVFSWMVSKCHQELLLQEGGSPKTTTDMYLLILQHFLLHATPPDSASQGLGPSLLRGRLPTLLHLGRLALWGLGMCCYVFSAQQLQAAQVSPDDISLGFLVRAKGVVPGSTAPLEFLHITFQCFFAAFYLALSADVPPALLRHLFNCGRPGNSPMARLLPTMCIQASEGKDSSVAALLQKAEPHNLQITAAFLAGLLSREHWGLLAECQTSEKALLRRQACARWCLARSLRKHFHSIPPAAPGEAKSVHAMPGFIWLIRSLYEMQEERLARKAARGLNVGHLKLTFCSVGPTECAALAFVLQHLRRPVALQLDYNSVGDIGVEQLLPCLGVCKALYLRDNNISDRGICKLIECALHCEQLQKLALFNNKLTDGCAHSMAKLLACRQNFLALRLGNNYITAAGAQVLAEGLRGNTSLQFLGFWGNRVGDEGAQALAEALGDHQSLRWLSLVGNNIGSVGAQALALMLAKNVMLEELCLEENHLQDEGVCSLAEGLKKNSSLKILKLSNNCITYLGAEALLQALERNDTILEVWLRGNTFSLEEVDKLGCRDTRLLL

Question: With Cc1cc(C(=O)COc2cccnc2[N+](=O)[O-])c(C)n1Cc1ccco1 as the compound, how does the EC50 (HEK293 [1]) read?
Answer: > 20 µM (inactive)

Question: And the IC50 (HEK293 [2])?
Answer: 18.2 µM (active)

Question: And the IC50 (HEK293 [3])?
Answer: > 20 µM (inactive)

Question: What about the EC50 [4] of the same compound?
Answer: 13.1 µM (active)

Question: And the IC50 (HEK293 [5])?
Answer: > 20 µM (inactive)

Question: And the IC50 (HEK293 [6])?
Answer: > 20 µM (inactive)

Question: For O=C(c1ccccc1)c1cccc(NC(=O)c2ccc(Br)o2)c1, which EC50 [7] is on record?
Answer: 7.3 µM (active)

Question: For CSC1=NSC2=NC(=O)/C(=C\c3cccs3)C(=N)N12, which IC50 (Leucine aminopeptidase) is on record?
Answer: 32.2 µM (active)

Question: What about the EC50 [8] of the same compound?
Answer: 8.94 µM (active)

Question: And the EC50 [9]?
Answer: 0.418 µM (active)

Question: And the EC50 (H4)?
Answer: 75 µM (active)

Question: What about the CC50 [10] of the same compound?
Answer: > 40 µM (active)

Question: What about the CC50 [11] of the same compound?
Answer: > 20 µM (active)

Question: What about the CC50 [12] of the same compound?
Answer: > 20 µM (active)

Question: For O=C(NCCCN1CCCC1)c1cc2c(Cl)nc3ccccc3c2s1, which CC50 [10] is on record?
Answer: 38.7 µM (active)

Question: What about the CC50 [11] of the same compound?
Answer: > 20 µM (active)

Question: What about the CC50 [12] of the same compound?
Answer: > 20 µM (active)

Question: And the IC50 (cells)?
Answer: 30.8 µM (active)

Question: What about the AC50 [13] of the same compound?
Answer: 7.11 µM (active)

Question: For Cc1ccccc1Nc1nc(Cl)c(C=O)s1, which EC50 [14] is on record?
Answer: > 300 µM (not active)

Question: What about the EC50 [15] of the same compound?
Answer: > 300 µM (not active)

Question: And the IC50 [16]?
Answer: > 80 µM (inactive)

Question: Which EC50 (HEK293 [1]) does the source give for Cc1cc(Cl)c(S(=O)(=O)N2CCSCC2)cc1OCC(=O)NC1CCCCC1 here?
Answer: 2.58 µM (active)

Question: And the IC50 (HEK293 [2])?
Answer: 4.29 µM (active)

Question: What about the IC50 (HEK293 [3]) of the same compound?
Answer: 9.2 µM (active)

Question: And the EC50 [4]?
Answer: 7.37 µM (active)

Question: And the IC50 (HEK293 [5])?
Answer: 3.6 µM (active)

Question: What about the IC50 (HEK293 [6]) of the same compound?
Answer: > 20 µM (inactive)

Question: What about the AC50 [17] of the same compound?
Answer: 4.11 µM (active)

Question: And the AC50 [18]?
Answer: 4.04 µM (active)

Question: And the AC50 [19]?
Answer: 5.08 µM (active)

Question: What about the AC50 [20] of the same compound?
Answer: 31.6 µM (active)

Question: What about the AC50 [21] of the same compound?
Answer: 1.06 µM (active)

Question: What about the AC50 [22] of the same compound?
Answer: 4.1 µM (active)

Question: Which EC50 [7] does the source give for Cc1ccc(CNC(=O)c2ccc(Cn3nc(C)c(Cl)c3C)o2)cc1 here?
Answer: 5.77 µM (active)

Question: And the AC50 [23]?
Answer: 8.04 µM (active)
